Legend:
[1] = system: phosphorylated ERK downstream of KRAS G12C in MIA PaCa2 cells; test: Cell p-ERK detection experiment (HTRF) in MIA PaCa2; format: cell-based, human; settings: Homo sapiens, MIA PaCa-2, 2 h, MIA PaCa2 cells, 2 hours with compound, Advance ERK phospho-T202/Y204 HTRF kit; read-out: p-ERK IC50
How it was run: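 Phospho-ERK (T202/Y204) measured by HTRF after 30 min lysis and 4 h antibody incubation in MIA PaCa2 (KRAS G12C) cells, seeded at 2.5E4 per well and treated 2 h with compounds in 3.16-fold steps, final DMSO 0.1%. IC50 from a four-parameter fit of percent inhibition relative to DMSO and blank wells.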

[2] = system: KRAS G12C mutant MIA PaCa-2 cells; test: Cell proliferation inhibition experiment, 3D spheroid, CellTiter-Glo, MIA PaCa-2; format: cell-based, human; settings: Homo sapiens, MIA PaCa-2, 120 h, 3D cell model in 384-well spheroid plate, 5 days, CellTiter-Glo; read-out: MIA-PaCa2 IC50
How it was run: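 Luminescent ATP read-out (CellTiter-Glo) after 5-day compound treatment of spheroids formed overnight from 200 MIA PaCa-2 cells/well; compounds in 3.16-fold series, 0.1% DMSO final. IC50 derived by four-parameter fit of percent inhibition, normalized to DMSO control and medium blank.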

SMILES	IC50 [1] [nM]	IC50 [2] [nM]
C=CC(=O)N1CCN2C(=O)c3c(N4CC(C)(O)CC4(C)C)nc(-c4c(O)cccc4F)c(Cl)c3OC[C@H]2C1 (stereo partly drawn) [Z243, (6aR)-8-acryloyl-4-chloro-3-(2-fluoro-6-hydroxyphenyl)-1-(4-hydroxy-2,2,4-trimethylpyrrolidin-1-yl)-6,6a,7,8,9,10-hexahydro-12H-pyrazino[2,1-c]pyrido[3,4-f][1,4]oxazepin-12-one]	19	4.2
C=CC(=O)N1CCN2C(=O)c3c(N4CCO[C@](C)(COC)C4)nc(-c4c(O)cccc4F)c(Cl)c3OC[C@H]2C1 (single isomer, unassigned) [Z332-1]	130	17
C=CC(=O)N1CCN2C(=O)c3c(N4CCC(C)(C)C4)nc(-c4c(O)cccc4F)c(Cl)c3OC[C@H]2C1 [Z21, (6aR)-8-acryloyl-4-chloro-1-(3,3-dimethylpyrrolidin-1-yl)-3-(2-fluoro-6-hydroxyphenyl)-6,6a,7,8,9,10-hexahydro-12H-pyrazino[2,1-c]pyrido[3,4-f][1,4]oxazepin-12-one]	325	65
C=CC(=O)N1CCN2C(=O)c3c(N4CCN(CC)C(C)(C)C4)nc(-c4c(O)cccc4F)c(Cl)c3OC[C@H]2C1 [Z322, (6aR)-8-actyloyl-4-chloro-3-(2-fluoro-6-hydroxyphenyl)-1-(4-ethyl-3,3-dimethylpiperazin-1-yl)-6,6a,7,8,9,10-hexahydro-12H-pyrazino[2,1-c]pyrido[3,4-f][1,4]oxazepin-12-one]	36	6.3
C=CC(=O)N1CCN2C(=O)c3c(N4C[C@@](C)(O)CC4(C)C)nc(-c4c(O)cccc4F)c(F)c3OC[C@H]2C1 (single isomer, unassigned) [Z256b-1]	43	6.2
C=CC(=O)N1CCN2C(=O)c3c(N4C[C@@H](OC)CC4(C)C)nc(-c4c(O)cccc4F)c(F)c3OC[C@H]2C1 (single isomer, unassigned) [Z256a-1]	42	11.6
C=CC(=O)N1CCN2C(=O)c3c(N4CCN(C)C5(CC5)C4)nc(-c4c(O)cccc4F)c(Cl)c3OC[C@H]2C1 [Z83, (6aR)-8-acryloyl-4-chloro-3-(2-fluoro-6-hydroxyphenyl)-1-(4-methyl-4,7-diazaspiro[2 .5]octan-7-yl)-6,6a,7,8,9,10-hexahydro-12H-pyrazino[2,1-c]pyrido[3,4-f][1,4]oxazepin-12 (6aH)-one]	107	37.4
C=CC(=O)N1CCN2C(=O)c3c(N4CC[C@@H](OC)C4(C)C)nc(-c4c(O)cccc4F)c(Cl)c3OC[C@H]2C1 (single isomer, unassigned) [Z241a-2]	9	1.5
C=CC(=O)N1CCN2C(=O)c3c(N4C[C@@H](O)CC4(C)C)nc(-c4c(F)ccc(F)c4O)c(F)c3OC[C@H]2C1 (single isomer, unassigned) [Z449-1]	151	22
C=CC(=O)N1CCN2C(=O)c3c(N4CC[C@@H](OC)[C@@H]4C)nc(-c4c(O)cccc4F)c(Cl)c3OC[C@H]2C1 [Z338-1, (6aR)-8-acryloyl-4-chloro-3-(2-fluoro-6-hydroxyphenyl)-1-((2S,3R)-3-methoxy-2-methylpyrrolidin-1-yl)-6,6a,7,8,9,10-hexahydro-12H-pyrazino[2,1-c]pyrido[3,4-f][1,4]oxazepin-12-one]	46	9
C=CC(=O)N1CCN2C(=O)c3c(N4CCOCC4)nc(-c4nc(N)cc(C)c4C(F)(F)F)c(Cl)c3OC[C@H]2C1 [Z314]	62	9.9
C=CC(=O)N1CCN2C(=O)c3c(N4CC(N5CCOCC5)CC4(C)C)nc(-c4c(O)cccc4F)c(Cl)c3OC[C@H]2C1 (stereo partly drawn) [Z344, (6aR)-8-acryloyl-4-chloro-1-((2,2-dimethyl-4-morpholinopyrrolidin-1-yl))-3-(2-fluoro-6-hydroxyphenyl)-6,6a,7,8,9,10-hexahydro-12H-pyrazino[2,1-c]pyrido[3,4-f][1,4]oxazepin-12-one]	10	3
